Counter-ions that a name gives are not always drawn. Like-named read-outs stand apart in the source and are kept apart here. Bridge positions count the residues as written; N and C are the ends. Square brackets hold non-standard residues; d marks the D form. Peptide text beside a SMILES is read from it. * marks the point of attachment. ξ: configuration not given here. X18 = O=C([C@H]1CC[C@H](O)CC1)*; Thr(3ξ) = CC(O)[C@H](N)C(=O)O; Dab = NCC[C@H](N)C(=O)O; X23 = O=C(CCCN1CCOCC1)*
Key:
Assay type in all cases: cell-based
[1] = system: Escherichia coli; test: MIC, sole activity (no second agent); conditions: for MIC: Escherichia coli
Protocol: (§1) To evaluate the potency and spectrum of the compounds both alone and in combination with another agent, susceptibility testing was performed against up to four strains of each of the four Gram negative pathogens, Escherichia coli, Pseudomonas aeruginosa, Klebsiella pneumoniae and Acinetobacter baumannii.
(§2) The inoculum was prepared by making a direct suspension of isolated colonies (selected from an 18-24 hour Mueller-Hinton agar plate) adjusted to the 0.5 McFarland standard.
(§3) The assays were performed in duplicate.
(§4) In cases where the duplicate values varied by less than 2-fold, the lower of the two values is reported. If a variation of greater than 2-fold was observed, the assay was considered non-valid. Several of the compounds were subjected to multiple tests, and where this is the case, the MIC reflects the modal value obtained.
(§5) MICs were determined as described herein, except that a different supplier of Cation-adjusted MHB was used. […] Values are reported relative to Polymyxin B.

[2] = system: Klebsiella pneumoniae; test: MIC, sole activity (no second agent); conditions: for MIC: Klebsiella pneumoniae
Protocol: as §1, §2, §3, §4, §5

[3] = system: Pseudomonas aeruginosa; test: MIC, sole activity (no second agent); conditions: for MIC: Pseudomonas aeruginosa, ATCC10145, read-out: MIC P. aeruginosa ATCC 10145
Protocol: as §1, §2, §3, §4, §5

[4] = system: Acinetobacter baumannii; test: MIC, sole activity (no second agent); conditions: for MIC A. baumannii ATCC BAA-747 / MIC A. baumannii NCTC 13424: Table 6A, no second agent, different supplier of Cation-adjusted MHB; for MIC: Acinetobacter baumannii, NCTC13424
Protocol: as §1, §2, §3, §4, §5

[5] = system: Klebsiella pneumoniae; test: MIC, compound in combination with a second agent (broth microdilution); conditions: 1:1 (wt:wt) combination with Rifampicin, MIC = total drug concentration; for MIC K. pneumoniae ATCC-BAA-2146: strain ATCC-BAA-2146; for MIC K. pneumoniae CCUG-59348: strain CCUG-59348
Protocol: as §1
(§6) Ratios of components in a combination, such as 1:1, refers to a weight to weight ratio. The minimum inhibitory concentration (MIC) refers to the total drug concentration (e.g. test compound plus second agent, such as Rifampicin).
as §2, §3, §4
(§7) The minimum inhibitory concentration refers to the total drug concentration (e.g. test compound plus Rifampicin). The compounds are used at equal mass within the combination. The weight refers to the mass of compound as used, for example the Example Compounds are used in their TFA or sulphate salt forms.
(§8) MICs refer to the total drug concentration. Thus, where a 1:1 combination is used, this is the amount of the test compound plus the second agent. For comparison, the MIC values for the second agent alone are also given.

[6] = system: Pseudomonas aeruginosa; test: as above; conditions: 1:1 (wt:wt) combination with Rifampicin; MIC = total drug concentration; strain CCUG 59626
Protocol: as §1, §6, §2, §3, §4, §7, §8

[7] = Table 6A, no second agent, different supplier of Cation-adjusted MHB
[8] = in the absence of Rifampicin, strain ATCC25922
[9] = in the absence of Rifampicin, strain ATCC 4352
[10] = in the absence of Rifampicin, strain ATCC27853

Compound	MIC E. coli NCTC 13441 [1, 7]	MIC K. pneumoniae ATCC 4352 [2, 7]	MIC K. pneumoniae ATCC BAA-2146 [2, 7]	MIC P. aeruginosa ATCC 27853 [3, 7]	MIC P. aeruginosa CCUG 59347 [3, 7]	MIC A. baumannii ATCC BAA-747 [4]	MIC A. baumannii NCTC 13424 [4]	MIC E. coli ATCC25922 [1, 7]	also measured
2-(1- (Aminomethyl)cyclohexyl) ethanoyl Polymyxin B nonapeptide [Example A30]	1 micrograms/mL	0.5 micrograms/mL	1 micrograms/mL	0.5 micrograms/mL	1 micrograms/mL	8 micrograms/mL	8 micrograms/mL	–	–
2-(1- Hydroxycyclohexyl)ethanoyl polymyxin B nonapeptide [Example A15]	8 micrograms/mL	4 micrograms/mL	–	4 micrograms/mL	8 micrograms/mL	>8 micrograms/mL	>8 micrograms/mL	8 micrograms/mL	–
2-(R)-(2-amino-2- cyclohexyl)ethanoyl polymyxin B nonapeptide [Example A38]	2 micrograms/mL	0.5 micrograms/mL	2 micrograms/mL	0.5 micrograms/mL	1 micrograms/mL	1 micrograms/mL	2 micrograms/mL	0.5 micrograms/mL	–
2-(RS)-2-aminooctyl polymyxin B decapeptide [Example A5]	–	0.5 micrograms/mL	0.5 micrograms/mL	0.25 micrograms/mL	0.5 micrograms/mL	1 micrograms/mL	2 micrograms/mL	0.5 micrograms/mL	–
2-Aminomethylbenzoyl polymyxin B nonapeptide [Example A31]	2 micrograms/mL	2 micrograms/mL	>8 micrograms/mL	0.5 micrograms/mL	2 micrograms/mL	>8 micrograms/mL	>8 micrograms/mL	8 micrograms/mL	–
3-(R)-3-Amino-5- methylhexanoyl polymyxin B nonapeptide [Example A45]	2 micrograms/mL	1 micrograms/mL	–	0.5 micrograms/mL	1 micrograms/mL	>8 micrograms/mL	>8 micrograms/mL	2 micrograms/mL	–
3-(RS)-3-amino octanoyl polymyxin B nonapeptide. Isomer 1 [Example A32]	0.5 micrograms/mL	0.5 micrograms/mL	0.25 micrograms/mL	0.5 micrograms/mL	1 micrograms/mL	2 micrograms/mL	2 micrograms/mL	0.5 micrograms/mL	–
3-Methylpiperidine-3- carbonyl polymyxin B nonapeptide [Example A39]	8 micrograms/mL	8 micrograms/mL	>8 micrograms/mL	2 micrograms/mL	4 micrograms/mL	>8 micrograms/mL	>8 micrograms/mL	>8 micrograms/mL	–
4-[3(R,S)-3-Amino-3- cyclohexanepropanamido] piperidine-4-carbonyl polymyxin B nonapeptide [Example A28]	>8 micrograms/mL	>8 micrograms/mL	>8 micrograms/mL	2 micrograms/mL	4 micrograms/mL	>8 micrograms/mL	>8 micrograms/mL	>8 micrograms/mL	–
5-Hydroxypiperidine-3- carbonyl polymyxin B nonapeptide [Example A50]	2 micrograms/mL	0.25 micrograms/mL	2 micrograms/mL	1 micrograms/mL	2 micrograms/mL	–	2 micrograms/mL	1 micrograms/mL	–
CC[C@H]1OC(=O)[C@H](C)[C@@H](O[C@H]2C[C@@](C)(OC)[C@@H](O)[C@H](C)O2)[C@H](C)[C@@H](O[C@@H]2O[C@H](C)C[C@H](N(C)C)[C@H]2O)[C@](C)(O)C[C@@H](C)CN(C)[C@H](C)[C@@H](O)[C@]1(C)O [Azithromycin, reference compound]	–	–	–	–	–	–	–	–	MIC ([1]; NCTC13441, Table 7F, E. coli NCTC 13441, second agent none, read-out: MIC E. coli NCTC 13441): > 32 µg/mL; MIC ([1]; Table 7F, E. coli ATCC25922, second agent none, read-out: MIC E. coli ATCC25922): 1 µg/mL; MIC ([2]; CCUG59349, Table 7F, K. pneumoniae CCUG 59349, second agent none, read-out: MIC K. pneumoniae CCUG 59349): > 32 µg/mL; MIC ([2]; Table 7F, K. pneumoniae ATCC4352, second agent none, read-out: MIC K. pneumoniae ATCC4352): 0.25 µg/mL; MIC ([3]; Table 7F, P. aeruginosa ATCC 10145, second agent none): 32 µg/mL; MIC ([4]; Table 7F, A. baumannii NCTC 13424, second agent none): 8 µg/mL
C[C@H]1[C@H](NC(=O)/C(=N\OC(C)(C)C(=O)O)c2csc(N)n2)C(=O)N1S(=O)(=O)O [Aztreonam, reference compound]	–	–	–	–	–	–	–	–	MIC ([1]; ATCC25922, Second Agent none (Table 7E), read-out: MIC E. coli ATCC25922): ≤ 0.06 µg/mL; MIC ([1]; NCTC13441, Second Agent none (Table 7E), read-out: MIC E. coli NCTC 13441): > 32 µg/mL; MIC ([2]; ATCC4352, Second Agent none (Table 7E), read-out: MIC K. pneumoniae ATCC4352): ≤ 0.06 µg/mL; MIC ([2]; CCUG59349, Second Agent none (Table 7E), read-out: MIC K. pneumoniae CCUG 59349): > 32 µg/mL; MIC ([3]; Second Agent none (Table 7E)): 4 µg/mL; MIC ([4]; Second Agent none (Table 7E), read-out: MIC A. baumannii NCTC 13424): 8 µg/mL
CC(C)C[C@@H]1NC(=O)[C@@H](Cc2ccccc2)NC(=O)[C@H](CCN)NC(=O)[C@@H](NC(=O)[C@H](CCN)NC(=O)[C@@H](NC(=O)CCCN2CCOCC2)C(C)O)CCNC(=O)[C@H](C(C)O)NC(=O)[C@H](CCN)NC(=O)[C@H](CCN)NC1=O (stereo partly shown) [Example 14, 4- Morpholinylbutanoyl polymyxin B nonapeptide, trifluoroacetate salt] (X23-[Thr(3ξ)][Dab][Dab][Dab][dF]L[Dab][Dab][Thr(3ξ)]; lactam 3-C)	–	–	–	–	–	–	–	–	MIC K. pneumoniae ATCC-BAA-2146 [5]: 2 micrograms/mL; MIC K. pneumoniae CCUG-59348 [5]: 16 micrograms/mL; MIC P. aeruginosa CCUG 59626 [6]: 0.5 micrograms/mL; MIC E. coli ATCC25922 [1, 8]: 4 micrograms/mL; MIC K. pneumoniae ATCC 4352 [2, 9]: >32 micrograms/mL; MIC P. aeruginosa ATCC 27853 [3, 10]: 1 micrograms/mL
CC(C)C[C@@H]1NC(=O)[C@@H](Cc2ccccc2)NC(=O)[C@H](CCN)NC(=O)[C@@H](NC(=O)[C@H](CCN)NC(=O)[C@@H](NC(=O)[C@H]2CC[C@H](O)CC2)C(C)O)CCNC(=O)[C@H](C(C)O)NC(=O)[C@H](CCN)NC(=O)[C@H](CCN)NC1=O (stereo partly drawn) [Example 25, trans-4-hydroxycyclohexane carbonyl polymyxin B nonapeptide] (X18-[Thr(3ξ)][Dab][Dab][Dab][dF]L[Dab][Dab][Thr(3ξ)]; lactam 3-C)	–	–	–	–	–	–	–	–	MIC K. pneumoniae ATCC-BAA-2146 [5]: 1 micrograms/mL; MIC K. pneumoniae CCUG-59348 [5]: 8 micrograms/mL; MIC K. pneumoniae NCTC 13438 ([5]; strain NCTC 13438): 2 micrograms/mL; MIC P. aeruginosa CCUG 59626 [6]: 0.5 micrograms/mL; MIC E. coli ATCC25922 [1, 8]: 8 micrograms/mL; MIC K. pneumoniae ATCC 4352 [2, 9]: 4 micrograms/mL; MIC P. aeruginosa ATCC 27853 [3, 10]: 0.125 micrograms/mL

Source: patent US10407467B2, “Polymyxin derivatives and their use in combination therapy together with different antibiotics” (priority 2013, dated 2019)
